Reference: patent US20040154048A1, “Activation of nuclear transfer embryos” (priority 2001, published 2004)
Marks after values point to notes of the source that are not given here.

Assays:
IVM porcine oocytes = experiment: Parthenogenetic activation of IVM porcine oocytes, development to blastocyst; assay type: cell-based; conditions: 5 μM ionomycin 5 min in mTALP-PVA, 6-DMAP +
Protocol: The preparation of in vitro matured (IVM) oocytes was essentially as described previously (Grupen et al, (1997) Reproduction Fertility Development 9:571-575). Ovaries from slaughtered prepubertal gilts were transported to the laboratory in Dulbecco's PBS supplemented with 0.6% (v/v) of an antibiotic solution (CSL Ltd) containing penicillin (10,000 U mL^−1), streptomycin (10,000 μg mL^−1) and fungizone (25 μg mL^−1) and maintained at 38° C. Antral follicles ([…] in diameter) were aspirated using a 21-gauge needle through which constant suction (1 L min^−1) was applied. The follicular contents were pooled in a collection tube. Cumulus-oocyte complexes (COCs) with at least three uniform layers of compact cumulus cells were recovered from the collected fluid, washed three times in OMM199a, transferred to 50 μl droplets (25 COCs per droplet) of OMM199a covered with mineral oil in a petrie dish (Becton Dickinson and Company, Plymouth, England) and incubated at 38.5° C. in a humidified atmosphere of 5% CO2 in air. After twenty two hours of maturation, expanded COCs were washed once in OMM199 without dibutyryl cAMP (OMM199b), transferred to 50 μl droplets of OMM199b and incubated for a further twenty four hours. At the end of the forty six hours maturation interval, the oocytes were treated with 0.5 mg mL^−1 hyaluronidase for one minute and then gently aspirated with a small bore glass pipette to remove the cumulus cells. Oocytes that had extruded a polar body were washed and kept in culture medium prior to activation.
The experiments hereafter were conducted with oocytes rather than nuclear transfer embryos. These experiments are termed parthenogenetic, since they are done without fertilized embryos. Parthenogenetic experiments are used routinely as a model system to investigate NT, largely because of the expense and additional experimental manipulation involved with NT embryos. Parthenogenetic experiments provide very useful information for the development of NT technology, and are directly predictive of NT outcomes.
Oocytes were activated forty six to forty eight hours after the start of maturation. Denuded oocytes that had extruded a polar body were washed and kept in modified TALP-PVA medium supplemented with 3.0 mM Ca-lactate (mTALP-PVA) for approximately one hour prior to activation. Oocytes were transferred to mTALP-PVA containing 5 μM ionomycin for five minutes. Oocytes were then washed twice and incubated in culture medium containing 2 mM 6-DMAP for three hours. The 6-DMAP treated oocytes were then washed twice and transferred to 50 μl droplets of the culture medium under mineral oil. In the ionomycin * treatment oocytes were not washed in media containing 6-DMAP.

porcine oocytes = conditions: ionomycin increased from 5 μM to 15 μM, low calcium levels; cited from earlier work

Question: With C[C@H](CCC(=O)O)C[C@H](C)C[C@H](C)C(=O)/C=C(\O)[C@H](C)C[C@H](C)C/C=C/[C@@H](C)[C@@H](O)[C@@H](C)[C@@H](O)C[C@@H]1CC[C@@](C)([C@H]2CC[C@@](C)([C@@H](C)O)O2)O1 [Ionomycin, ionomycin] as the compound, how does the “Percentage developing to blastocyst, Day 6” value (IVM porcine oocytes) read?
Answer: The value was 49^c %.

Question: And the “Percentage developing to blastocyst, Day 6” value (IVM porcine oocytes; listed as Ionomycin*)?
Answer: The value was 1^d %.

Question: And the “Percentage developing to blastocyst, Day 7” value (IVM porcine oocytes)?
Answer: The value was 51^c %.

Question: And the “Percentage developing to blastocyst, Day 7” value (IVM porcine oocytes; listed as Ionomycin*)?
Answer: Its value is 1^d %.

Question: And the “oocytes developing parthenogenetically to blastocyst stage” value (porcine oocytes)?
Answer: The value was 23%.
